Where a name gives a salt, the structure may show the parent alone.
What follows are molecules tested against CK2A1 (CK2α/β) (Homo sapiens, UniProt P68400) (assay: CK2 kinase assay, CK2A1 (CK2α/β)). Details: Table A; read-out: CK2A1 (CK2α/β) (IC50).
Sequence of CK2A1 (CK2α/β) (P68400 whole entry, species assumed): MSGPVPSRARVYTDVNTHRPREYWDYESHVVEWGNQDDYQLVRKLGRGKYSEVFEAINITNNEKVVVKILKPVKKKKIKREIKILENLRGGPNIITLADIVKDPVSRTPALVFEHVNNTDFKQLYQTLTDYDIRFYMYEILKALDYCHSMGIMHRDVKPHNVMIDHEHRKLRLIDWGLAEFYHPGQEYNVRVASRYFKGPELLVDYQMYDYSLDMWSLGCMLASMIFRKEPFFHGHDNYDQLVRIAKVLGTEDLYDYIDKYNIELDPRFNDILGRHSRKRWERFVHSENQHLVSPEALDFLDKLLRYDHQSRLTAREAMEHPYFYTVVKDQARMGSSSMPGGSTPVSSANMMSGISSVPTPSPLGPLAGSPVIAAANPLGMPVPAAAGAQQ
Sequence of CK2A1 (CK2α/β) (P67870 whole entry partner, species assumed): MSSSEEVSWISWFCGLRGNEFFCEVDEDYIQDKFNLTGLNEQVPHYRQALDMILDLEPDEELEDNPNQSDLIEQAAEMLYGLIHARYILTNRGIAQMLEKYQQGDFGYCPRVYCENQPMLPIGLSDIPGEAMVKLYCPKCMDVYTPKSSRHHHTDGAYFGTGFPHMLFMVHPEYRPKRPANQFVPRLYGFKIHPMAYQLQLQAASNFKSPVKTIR
Type: biochemical
Work on CN1CCC2(CC1)CN(c1cc(C#N)cc(Nc3nc(NC4CC4)c4ncc(C#N)n4n3)c1Cl)C2 [Example 22, 2-((2-chloro-5-cyano-3-(7-methyl-2,7-diazaspiro[3.5]non-2-yl)phenyl)amino)-4-(cyclopropylamino)imidazo [2,1-f][1,2,4]triazine-7-carbonitrile] yielded an IC50 of 0.68 nM. In the case of COC(=O)NN1CCN(c2cc(C#N)cc(Nc3nc(NC4CC4)c4ncc(C#N)n4n3)c2Cl)CC1 [Example 790, methyl (4-(2-chloro-5-cyano-3-((7-cyano-4-(cyclopropylamino)imidazo[2,1-f][1,2,4]triazin-2-yl)amino)phenyl)piperazin-1-yl)carbamate], the IC50 is reported as 1.52 nM. CO[C@@H]1CN(c2cc(C#N)cc(Nc3nc(NC4CC4)c4ncc(C#N)n4n3)c2Cl)C[C@@H]1NC(=O)NC1COC1 [Example 290, 1-((3S,4R)-1-(2-chloro-5-cyano-3-((7-cyano-4-(cyclopropylamino)imidazo[2,1-f][1,2,4]triazin-2-yl)amino)phenyl)-4-methoxy-3-pyrrolidinyl)-3-(3-oxetanyl)urea] showed an IC50 of 0.47 nM. In the case of COC(=O)N[C@@H]1CCN(c2cc(C#N)cc(Nc3nc(NC4CC4)c4ncc(C#N)n4n3)c2Cl)C[C@H]1OC(=O)CN1CCOCC1 [Example 196, (3R,4R)-1-(2-chloro-5-cyano-3-((7-cyano-4-(cyclopropylamino)imidazo[2,1-f][1,2,4]triazin-2-yl)amino)phenyl)-4-((methoxycarbonyl)amino)-3-piperidinyl 4-morpholinylacetate], the IC50 is reported as 0.8 nM. Work on C[C@H]1CC(CN2CCN(c3cc(C#N)cc(Nc4nc(NC5CC5)c5ncc(C#N)n5n4)c3Cl)CC2)O1 (stereo partly drawn) [Example 529, 2-((2-chloro-5-cyano-3-(4-(((4S)-4-methyloxetan-2-yl)methyl)piperazin-1-yl)phenyl)amino)-4-(cyclopropylamino)imidazo[2,1-f][1,2,4]triazine-7-carbonitrile] yielded an IC50 of 1.33 nM. With CC1(N2CCOCC2)CCN(c2cc(C(F)F)cc(Nc3nc(NC4CC4)c4ncc(C#N)n4n3)c2Cl)CC1 [Example 244, 2-((2-chloro-5-(difluoromethyl)-3-(4-methyl-4-(4-morpholinyl)-1-piperidinyl)phenyl)amino)-4-(cyclopropylamino)imidazo[2,1-f][1,2,4]triazine-7-carbonitrile] the IC50 was 0.97 nM. CCNc1nc(-n2cc([C@H]3C[C@@H]3CN(C)C)c3ccc(C#N)cc32)nn2c(C#N)cnc12 (single isomer, unassigned) [Example 774] gave an IC50 of 4.05 nM. Molecule CCNc1nc(Nc2cc(C#N)cc(N3C[C@H](NC(=O)OC)[C@H](OC)C3)c2Cl)nn2c(C#N)cnc12 [Example 334, methyl ((3S,4R)-1-(2-chloro-5-cyano-3-((7-cyano-4-(ethylamino)imidazo[2,1-f][1,2,4]triazin-2-yl)amino)phenyl)-4-methoxy-3-pyrrolidinyl)carbamate] has an IC50 of 1.1 nM. N#Cc1cc(Nc2nc(NC3CC3)c3ncc(C#N)n3n2)c(Cl)c(C2(O)CCN(C3COC3)C2)c1 (stereo not drawn) [Example 652, 2-((2-chloro-5-cyano-3-(3-hydroxy-1-(oxetan-3-yl)pyrrolidin-3-yl)phenyl)amino)-4-(cyclopropylamino)imidazo[2,1-f][1,2,4]triazine-7-carbonitrile] showed an IC50 of 0.83 nM. Molecule N#Cc1cc(Nc2nc(NC3CC3)c3ncc(C#N)n3n2)c(Cl)c(N2CCC(NCC(O)CF)CC2)c1 (racemic) [Example 144, (+/−) 2-((2-chloro-5-cyano-3-(4-((3-fluoro-2-hydroxypropyl)amino)-1-piperidinyl)phenyl)amino)-4-(cyclopropylamino)imidazo [2,1-f][1,2,4]triazine-7-carbonitrile] has an IC50 of 1.11 nM. In the case of COCCNCC(O)c1cc(C#N)cc(Nc2nc(NC3CC3)c3ncc(C#N)n3n2)c1Cl (stereo not drawn) [Example 685, 2-((2-chloro-5-cyano-3-(1-hydroxy-2-((2-methoxyethyl)amino)ethyl)phenyl)amino)-4-(cyclopropylamino)imidazo[2,1-f][1,2,4]triazine-7-carbonitrile], the IC50 is reported as 0.95 nM. N#Cc1cc(CN=[N+]=[N-])c(Cl)c(Nc2nc(NC3CC3)c3ncc(C#N)n3n2)c1 [Example 683, 2-((3-(azidomethyl)-2-chloro-5-cyanophenyl)amino)-4-(cyclopropylamino)imidazo[2,1-f][1,2,4]triazine-7-carbonitrile] showed an IC50 of 0.14 nM. CCNc1nc(Nc2cc(C#N)cc(C3CN(C[C@H](C)O)C3)c2Cl)nn2c(C#N)cnc12 [Example 368, (S)-2-((2-chloro-5-cyano-3-(1-(2-hydroxypropyl)azetidin-3-yl)phenyl)amino)-4-(ethylamino)imidazo[2,1-f][1,2,4]triazine-7-carbonitrile] gave an IC50 of 3.62 nM. Molecule CS(=O)(=O)NCC1CN(c2cc(C#N)cc(Nc3nc(NC4CC4)c4ncc(C#N)n4n3)c2Cl)CCO1 (racemic) [Example 700, (+/−)-N-((4-(2-chloro-5-cyano-3-((7-cyano-4-(cyclopropylamino)imidazo[2,1-f][1,2,4]triazin-2-yl)amino)phenyl)morpholin-2-yl)methyl)methanesulfonamide] has an IC50 of 0.57 nM. With CCNc1nc(Nc2cc(C#N)cc(N3CC[C@@H](NC(=O)OC)[C@H](OC(=O)[C@@H](N)CCCN)C3)c2Cl)nn2c(C#N)cnc12 [Example 811, (S)-(3R,4R)-1-(2-chloro-5-cyano-3-((7-cyano-4-(ethylamino)imidazo[2,1-f][1,2,4]triazin-2-yl)amino)phenyl)-4-((methoxycarbonyl)amino)piperidin-3-yl 2,5-diaminopentanoate dihydrochloride] the IC50 was 1.88 nM. In the case of CCNc1nc(Nc2cc(C#N)cc(N3CC[C@@H](NC(=O)OC)[C@@H](N(C)C(C)C(N)=O)C3)c2Cl)nn2c(C#N)cnc12 (stereo in doubt) [Example 769, methyl N-[(3S,4R)-3-{[(1S)-1-carbamoylethyl](methyl)amino}-1-(2-chloro-5-cyano-3-{[7-cyano-4-(ethylamino)imidazo[2,1-f][1,2,4]triazin-2-yl]amino}phenyl)piperidin-4-yl]carbamate], the IC50 is reported as 3 nM. N#Cc1cc(Nc2nc(NC3CC3)c3ncc(C#N)n3n2)c(Cl)c(C(O)CO)c1 (racemic) [Example 681, (+/−)-2-((2-chloro-5-cyano-3-(1,2-dihydroxyethyl)phenyl)amino)-4-(cyclopropylamino)imidazo[2,1-f][1,2,4]triazine-7-carbonitrile] showed an IC50 of 0.64 nM. For N#Cc1cc(Nc2nc(NC3CC3)c3ncc(C#N)n3n2)c(Cl)cc1CCCN1CCOCC1 [Example 567, 2-((2-chloro-5-cyano-4-(3-morpholinopropyl)phenyl)amino)-4-(cyclopropylamino)imidazo[2,1-f][1,2,4]triazine-7-carbonitrile], the IC50 was 4.06 nM. With COC[C@@H](O)CN1CCN(c2cc(C#N)cc(Nc3nc(NC4CC4)c4ncc(C#N)n4n3)c2Cl)CC1 [Example 602, 2-[(2-chloro-5-cyano-3-{4-[(2S)-2-hydroxy-3-methoxypropyl]piperazin-1-yl}phenyl)amino]-4-(cyclopropylamino)imidazo [2,1-f][1,2,4]triazine-7-carbonitrile] the IC50 was 4.34 nM. C[C@H]1OCC[C@@H]1NC1CCN(c2cc(C#N)cc(Nc3nc(NC4CC4)c4ncc(C#N)n4n3)c2Cl)CC1 (racemic) [Example 122, (+/−) 2-((2-chloro-5-cyano-3-(4-(((2R,3S)-2-methyltetrahydro-3-furanyl)amino)-1-piperidinyl)phenyl)amino)-4-(cyclopropylamino)imidazo [2,1-f][1,2,4]triazine-7-carbonitrile] was tested, and the IC50 was 0.8 nM. Molecule N#Cc1cc(Nc2nc(NC3CC3)c3ncc(C#N)n3n2)c(Cl)c(C2CCN(C3CCC3O)CC2)c1 (single isomer, unassigned) [Example 645, Cis and trans 2-((2-chloro-5-cyano-3-(1-(2-hydroxycyclobutyl)piperidin-4-yl)phenyl)amino)-4-(cyclopropylamino)imidazo[2,1-f][1,2,4]triazine-7-carbonitrile] has an IC50 of 1.75 nM. CC(=O)N1CCC2(CC1)CN(c1cc(C#N)cc(Nc3nc(NC4CC4)c4ncc(C#N)n4n3)c1Cl)C2 [Example 806, 2-((3-(7-acetyl-2,7-diazaspiro[3.5]nonan-2-yl)-2-chloro-5-cyanophenyl)amino)-4-(cyclopropylamino)imidazo[2,1-f][1,2,4]triazine-7-carbonitrile] showed an IC50 of 0.84 nM. For CO[C@@H]1CN(c2cc(C#N)cc(Nc3nc(NC4CC4)c4ncc(C#N)n4n3)c2Cl)C[C@H]1O (racemic) [Example 305, (+/−)-2-((2-chloro-5-cyano-3-((3R,4R)-3-hydroxy-4-methoxypyrrolidin-1-yl)phenyl)amino)-4-(cyclopropylamino)imidazo[2,1-f][1,2,4]triazine-7-carbonitrile, HCl], the IC50 was 0.65 nM. CCNc1nc(Nc2cc(C#N)cc(N3CC[C@@H](N4CC(O)C4)[C@H](O)C3)c2Cl)nn2c(C#N)cnc12 (racemic) [Example 776, (+/−)-2-((2-chloro-5-cyano-3-((3R,4R)-3-hydroxy-4-(3-hydroxyazetidin-1-yl)piperidin-1-yl)phenyl)amino)-4-(ethylamino)imidazo[2,1-f][1,2,4]triazine-7-carbonitrile] was tested, and the IC50 was 1.2 nM. With CCNc1nc(Nc2cc(C#N)cc(N3CC[C@@H](NC(=O)OC)[C@H](OC(=O)[C@@H]4CCCN4)C3)c2Cl)nn2c(C#N)cnc12 [Example 813, (S)-(3R,4R)-1-(2-chloro-5-cyano-3-((7-cyano-4-(ethylamino)imidazo[2,1-f][1,2,4]triazin-2-yl)amino)phenyl)-4-((methoxycarbonyl)amino)piperidin-3-yl pyrrolidine-2-carboxylate hydrochloride] the IC50 was 4.48 nM. CN1CC(N(C)C2CCN(c3cc(C#N)cc(Nc4nc(NC5CC5)c5ncc(C#N)n5n4)c3Cl)CC2)CC1=O (stereo not drawn) [Example 714, 2-((2-Chloro-5-cyano-3-(4-(methyl(1-methyl-5-oxopyrrolidin-3-yl)amino)piperidin-1-yl)phenyl)amino)-4-(cyclopropylamino)imidazo[2,1-f][1,2,4]triazine-7-carbonitrile] gave an IC50 of 44.6 nM. With CC(C)(O)CC(=O)N1CC(N2CCN(c3cc(C#N)cc(Nc4nc(NC5CC5)c5ncc(C#N)n5n4)c3Cl)CC2)C1 [Example 490, 2-[(2-chloro-5-cyano-3-{4-[1-(3-hydroxy-3-methylbutanoyl)azetidin-3-yl]piperazin-1-yl}phenyl)amino]-4-(cyclopropylamino)imidazo[2,1-f][1,2,4]triazine-7-carbonitrile] the IC50 was 0.94 nM.

— patent US9273057B2 (Bristol-Myers Squibb Company, priority 2012, dated 2016)
